# In patent publication US11298409B2, “Mutant huntingtin-mediated protein dysfunction” (UNIVERSITY OF PITTSBURGH—OF THE COMMONWEALTH SYSTEM OF …, priority 2014, dated 2022):
# Where two headings read alike, the source gives them in different places. No end group written: not given here.
# Tests used:
# [1] = system: pOTC import into mitochondria isolated from striatal cells; experiment: pOTC import assay with mitochondria from striatal cells plus uncoupler; format: biochemical; conditions: added to mitochondria before starting the import reaction
# Method: The assay was performed as previously described (52,53).
# [2] = system: mitochondrial protein import in primary cortical neurons; conditions: 10 μM, 2 h
# Method: Neurons obtained from each embryo were cultured separately on poly-1-lysine-coated plates and subjected to in vitro pOTC import assay on DIV 7-8.
# Pre-ornithine transcarbamylase (pOTC) cDNA in pGEM-3Zf(+)-pOTC plasmid, which was kindly provided by M. Yano (Kumamoto University, Kumamoto, Japan), was transcribed and translated in vitro using the TNT-coupled reticulocyte lysate system (Promega) in the presence of 1-[^35S]methionine (PerkinElmer). Following translation, [35 S]methionine-labeled pOTC was incubated with isolated mitochondria at 25° C. for the indicated times, and mitochondria containing imported OTC were collected by centrifugation (9,000 g, 10 min) and subjected to SDS-PAGE. The radioactive polypeptides on the gel were visualized by fluorography with Amplify (GE Healthcare) followed by exposure to X-ray film. Cleaved mature OTC (mOTC), which represents the completion of import into the mitochondrial matrix and migrates faster than pOTC on SDS-PAGE, was quantified by ImageJ (NIH). The data are presented as the percentage of mOTC compared to input (total [^35S]pOTC amount added to each reaction) and scaled to imported mOTC in control mitochondria after the maximum reaction time (set equal to 1) unless otherwise specified. […]
# [3] = system: WT primary cortical neurons; conditions: 10 μM
# Method: Primary cortical neurons were prepared from R6/2 and WT littermate embryos at E15.5. Neurons prepared from each embryo were plated into separate dishes. […] Primary cortical neurons were incubated with the indicated concentrations of H2O2 for 1 day, and neuronal death was analyzed by lactate dehydrogenase (LDH) assay (11c). Data (11b, 11c) are presented as mean+s.e.m.
# [4] = system: primary cortical and striatal neurons; experiment: cell death assay by nuclear morphology in Tom40 RNAi-transfected primary neurons; format: cell-based, mouse; conditions: 20 μM
# Method: Mouse primary cortical and striatal neurons from embryonic day (E) 15.5 Swiss Webster mouse fetuses were cultured in plating medium (minimal essential medium (MEM), 10% FBS, 0.45% glucose, 1 mM sodium pyruvate, 2 mM glutamine and penicillin/streptomycin) for 3 h and then maintained in serum-free Neurobasal medium containing B27 supplement (Life Technologies), 0.5 mM glutamine and 25 μM glutamate for the first 3 d in a humidified incubator (37° C. in 5% CO2). Half of the medium was replaced with Neurobasal medium with B27 and 0.5 mM glutamine every 3 d. […] Viral copy number was adjusted for transduction of neurons on the basis of titer measured using the Lenti-X qRT-PCR titration kit (Clontech). […]
# Primary neurons infected with Tim23 shRNA or control luciferase shRNA lentivirus at DIV 5 were fixed 7 d after infection. Nuclei were stained with Hoechst 33342, and neurons were assessed in a blinded fashion for cell death by scoring condensed or fragmented nuclei. Primary neurons plated in a 24-well plate were transfected with Tom40 shRNA or control pBSU6 plasmid along with β-gal expression plasmid at DIV 5, fixed 3 d after transfection and subjected to indirect immunofluorescence with anti-β-gal antibody and nuclear DAPI staining. β-gal-positive neurons were assessed for cell death as described above. […]
# [5] = system: TIM23 complex (Tim17a, Tim23 and Tim50); experiment: GST pull-down with mitochondria isolated from ST14A striatal cells and mouse brain; format: binding, rat
# Method: Extracts were spun at 14,000 r.p.m. at 4° C., and clarified supernatants were incubated with glutathione 4B Sepharose beads (GE Healthcare) at 4° C. overnight. The glutathione beads were then washed extensively with ice-cold TNE buffer, and bound proteins were subjected to SDS-PAGE followed by immunoblotting analysis. For the samples subjected to mass spectrometry, glutathione bead-bound proteins from equal amounts (600 μg) of mitochondria were further washed with high stringency RIPA buffer following TNE buffer wash to decrease nonspecific interaction. Proteins were then eluted from the glutathione beads in SDS sample buffer, separated by SDS-PAGE and stained with Coomassie. Proteins in the gel were digested with trypsin and analyzed by mass spectrometry (LC-MS/MS) at the Taplin Biological Mass Spectrometry Facility (Harvard Medical School, Boston, Mass.).
# We therefore performed GST pull-down assays using purified GST-Httex1-97Q, GST-Httex1-97Q-ΔN17, which lacks the N17 sequence, and GST-N17 with mitochondria isolated from ST14A striatal cells and mouse brain.
# Tim23 = biological target: T1, Tim23 (Mus musculus, UniProt Q9WTQ8); experiment: GST pull down assay with purified Tim proteins; format: binding
# T1 construct: GST (N, cleaved yes); made in house; host or cells: E. coli BL21star (DE3)
# T1 sequence (Q9WTQ8 1-209): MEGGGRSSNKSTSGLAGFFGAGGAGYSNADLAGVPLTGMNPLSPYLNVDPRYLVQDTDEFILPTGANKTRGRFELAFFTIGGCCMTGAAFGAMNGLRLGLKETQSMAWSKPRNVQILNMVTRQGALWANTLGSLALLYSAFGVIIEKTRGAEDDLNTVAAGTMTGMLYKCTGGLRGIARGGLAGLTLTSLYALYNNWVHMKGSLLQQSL
# Method: Mouse Timm23, Timm50, Timm17A, and Timm17B cDNA were subcloned into the GST-Httex1 vector and transformed into BL21star (DE3) cells (Life Technologies). GST-Tim23, GST-Tim50, GST-Tim17A, and GST-Tim17B fusion proteins were purified from the cells by using glutathione 4B Sepharose beads (GE Healthcare) to bind the fusion proteins. To purify Tim proteins from GST, the GST fusion protein-bead complexes were digested with thrombin protease (GE Healthcare) at 25° C. overnight, and eluted with PBS. The eluted proteins were concentrated in PBS using AmiconUltra-10K centrifugal filters (Millipore).
# GST-Htt exon 1 proteins and GST removed Tim proteins were incubated with glutathione 4B Sepharose beads (GE Healthcare) at 4° C. overnight. The glutathione beads were then washed extensively with ice-cold PBS, and bound proteins were subjected to SDS-PAGE followed by immunoblotting analysis.
molecule,measurement,setting,value
"O=[N+]([O-])c1ccc(O)c([N+](=O)[O-])c1 [2,4-dinitrophenol]",effect on pOTC import,[1],blocks import
OO [hydrogen peroxide],effect on mitochondrial protein import vs vehicle,[2]; R6/2 neurons,significantly decreased import
same,effect on mitochondrial protein import vs vehicle,[2]; WT neurons,little to no effect
same,effect on survival,[3],does not affect
CC(C)[C@H](NC(=O)c1ccc2ccccc2n1)C(=O)N[C@@H](CC(=O)O)C(=O)COc1c(F)cccc1F [qVD-OPh],effect on Tom40 RNAi-induced neuronal death,[4],partially but significantly inhibited
"GST-N17: GST tagged N terminal 17 amino acids of Huntingtin protein (MATLEKLMKAFESLKSF; also: GST tagged, side not given here)","interaction with Tim17a, Tim23 and Tim50 in pull-down",[5],"little, if any, interaction"
same,binding to Tim23 in pull down,Tim23,did not bind
